From US20240415819A1, “MACROCYCLIC COMPOUNDS AS PROTEASOME SUBUNIT BETA TYPE-5 INHIBITORS” (Lead Discovery Center GmbH, priority 2021, published 2024) come the findings set out here.

One experiment deals with hPMBC. Kind of experiment: Chymotrypsin-like ProteasomeGlo assay in hPBMC. It is filed as cell-based. Conditions: Homo sapiens; read-out: Pglo hPBMC. In outline:
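B cells isolated from human PBMC (buffy coats, density gradient, magnetic isolation). Cells treated with compound for 105 min at 37 °C, with staurosporine and DMSO included. Chymotrypsin-like proteasome activity read by luminescence with Suc-LLVY-Glo substrate to derive IC50.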

Experiment [1] has as its target T1, β5 subunit of the human constitutive proteasome (CPS) (Homo sapiens, UniProt P28074).
T1 construct: purchased Boston Biochem E-360
The experiment is described as follows: β5 inhibition assay, human constitutive proteasome (Suc-LLVY-AMC). It is filed as biochemical. The settings on record: IC50 class, Suc-LLVY-AMC substrate. The procedure: The enzymatic activity of the β5 subunit of the human constitutive proteasome (CPS) is analyzed. In another assay, which differs from the assay of the human constitutive proteasome only in using the human immunoproteasome (IPS) the enzymatic activity of the β5 subunit of the human immunoproteasome (IPS) is analyzed. […] Inhibition is indicated as IC50 [nM] (“-”=not measured).

For experiment [2], the target named is T2, β5 subunit of the human immunoproteasome (IPS) (Homo sapiens, UniProt P28062).
T2 construct: purchased Boston Biochem E-370
Kind of experiment: β5 inhibition assay, human immunoproteasome (Suc-LLVY-AMC). It is filed as biochemical. The settings on record: IC50 class, Suc-LLVY-AMC substrate. In short, it runs like this:
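Human immunoproteasome (1 nM final) was preincubated 10 min at RT with compound in 100 mM HEPES pH 7.5, 50 mM NaCl, 0.02% SDS, 1 mM DTT. Suc-LLVY-AMC (22.6 μM final) was then added for 4 h at RT in the dark. After stopping with 1 μM bortezomib, AMC fluorescence was read (ex 355/em 460 nm).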

In the case of `Cc1ccc2cc1CNC(=O)[C@H](CCc1ccccc1)NC(=O)[C@@H](N)CC(=O)N1CCCC(CCO2)C1` (stereo partly drawn) [Compound 8, (9S,12S)-12-amino-5^4-methyl-9-phenethyl-4-oxa-7,10-diaza-1(3,1)-piperidina-5(1,3)-benzenacyclotetradecaphane-8,11,14-trione], the IC50 in the experiment on hPMBC was 100 to 500 nM; in experiment [1], below 100 nM; in experiment [2], below 100 nM.

Take `Cc1ccc2cc1CNC(=O)[C@H](CCc1ccccc1)NC(=O)CCC(=O)N1CCCC(CCO2)C1` (stereo partly drawn) [Compound 13, (9S)-5^4-methyl-9-phenethyl-4-oxa-7,10-diaza-1(3,1)-piperidina-5(1,3)-benzenacyclotetradecaphane-8,11,14-trione]: the IC50 in experiment [1] and in experiment [2] was below 100 nM throughout.

`Cc1ccc2cc1CNC(=O)[C@H](CCc1ccccc1)NC(=O)CCCCC(=O)N1CCCC(CCO2)C1` (stereo partly drawn) [Compound 16, (9S)-5^4-methyl-9-phenethyl-4-oxa-7,10-diaza-1(3,1)-piperidina-5(1,3)-benzenacyclohexadecaphane-8,11,16-trione]: the IC50 in experiment [1] and in experiment [2] was below 100 nM in each case.

Turning to `Cc1ccc2cc1CNC(=O)[C@H](CCc1ccccc1)NC(=O)[C@@H](NC(=O)CCc1cccc(F)c1)CC(=O)N1CCCC(CCO2)C1` (stereo partly drawn) [Compound 25, 3-(3-fluorophenyl)-N-((9S,12S)-5^4-methyl-8,11,14-trioxo-9-phenethyl-4-oxa-7,10-diaza-1(3,1)-piperidina-5(1,3)-benzenacyclotetradecaphane-12-yl)propanamide], the IC50 in experiment [1] and in experiment [2] was below 100 nM throughout.

In the case of `Cc1ccc2cc1CNC(=O)[C@H](CCc1ccccc1)NC(=O)[C@@H](NC(=O)c1ccccc1)CC(=O)N1CCCC(CCO2)C1` (stereo partly drawn) [Compound 26, N-((9S,12S)-5^4-methyl-8,11,14-trioxo-9-phenethyl-4-oxa-7,10-diaza-1(3,1)-piperidina-5(1,3)-benzenacyclotetradecaphane-12-yl)benzamide], the IC50 in experiment [1] and in experiment [2] was below 100 nM in each case.

`Cc1ccc2cc1CNC(=O)[C@H](CCc1ccccc1)NC(=O)[C@@H](Nc1ccccn1)CC(=O)N1CCCC(CCO2)C1` (stereo partly drawn) [Compound 36, (9S,12S)-5^4-methyl-9-phenethyl-12-(pyridin-2-ylamino)-4-oxa-7,10-diaza-1(3,1)-piperidina-5(1,3)-benzenacyclotetradecaphane-8,11,14-trione]: the IC50 in experiment [1] and in experiment [2] was below 100 nM throughout.

Turning to `Cc1ccc2cc1CNC(=O)[C@H](CCc1ccccc1)NC(=O)[C@@H](NS(C)(=O)=O)CC(=O)N1CCCC(CCO2)C1` (stereo partly drawn) [Compound 37, N-((9S,12S)-5^4-methyl-8,11,14-trioxo-9-phenethyl-4-oxa-7,10-diaza-1(3,1)-piperidina-5(1,3)-benzenacyclotetradecaphane-12-yl)methanesulfonamide], the IC50 in experiment [1] and in experiment [2] was below 100 nM each time.

For `CCOC(=O)N[C@H]1CC(=O)N2CCCC(CCOc3ccc(C)c(c3)CNC(=O)[C@H](CCc3ccccc3)NC1=O)C2` (stereo partly drawn) [Compound 39, ethyl ((9S,12S)-5^4-methyl-8,11,14-trioxo-9-phenethyl-4-oxa-7,10-diaza-1(3,1)-piperidina-5(1,3)-benzenacyclotetradecaphane-12-yl)carbamate], the IC50 in experiment [1] and in experiment [2] was below 100 nM in each case.

For the molecule `Cc1ccc2cc1CNC(=O)[C@H](CCc1ccccc1)NC(=O)[C@@H](NC(=O)c1ccccn1)CC(=O)N1CCCC(CCO2)C1` (stereo partly drawn) [Compound 40, N-((9S,12S)-5^4-methyl-8,11,14-trioxo-9-phenethyl-4-oxa-7,10-diaza-1(3,1)-piperidina-5(1,3)-benzenacyclotetradecaphane-12-yl)picolinamide], the IC50 in experiment [1] and in experiment [2] was below 100 nM each time.

Consider `Cc1ccc2cc1CNC(=O)[C@H](CCc1ccccc1)NC(=O)[C@@H](NC(=O)c1ccncc1)CC(=O)N1CCCC(CCO2)C1` (stereo partly drawn) [Compound 42, N-((9S,12S)-5^4-methyl-8,11,14-trioxo-9-phenethyl-4-oxa-7,10-diaza-1(3,1)-piperidina-5(1,3)-benzenacyclotetradecaphane-12-yl)isonicotinamide], for which the IC50 in experiment [1] and in experiment [2] was below 100 nM in each case.

`Cc1ccc2cc1CNC(=O)[C@H](CCc1ccccc1)NC(=O)[C@@H](N1C(=O)CCC1=O)CC(=O)N1CCCC(CCO2)C1` (stereo partly drawn) [Compound 43, (9S,12S)-12-(2,5-dioxopyrrolidin-1-yl)-5^4-methyl-9-phenethyl-4-oxa-7,10-diaza-1(3,1)-piperidina-5(1,3)-benzenacyclotetradecaphane-8,11,14-trione]: the IC50 in experiment [1] and in experiment [2] was below 100 nM throughout.

`Cc1ccc2cc1CNC(=O)[C@H](CCc1ccccc1)NC(=O)[C@@H](Nc1nc3ccccc3[nH]1)CC(=O)N1CCCC(CCO2)C1` (stereo partly drawn) [Compound 45, (9S,12S)-12-((1H-benzo[d]imidazol-2-yl)amino)-5^4-methyl-9-phenethyl-4-oxa-7,10-diaza-1(3,1)-piperidina-5(1,3)-benzenacyclotetradecaphane-8,11,14-trione]: the IC50 in experiment [1] and in experiment [2] was below 100 nM in each case.

For the molecule `Cc1ccc2cc1CNC(=O)C(CCc1cccnc1)NC(=O)CCC(=O)N1CCCC(CCO2)C1` (stereo not shown) [Compound 51, 5^4-methyl-9-(2-(pyridin-3-yl)ethyl)-4-oxa-7,10-diaza-1(3,1)-piperidina-5(1,3)-benzenacyclotetradecaphane-8,11,14-trione], the IC50 in experiment [1] and in experiment [2] was below 100 nM in each case.

With `Cc1ccc2cc1CNC(=O)[C@H](CCc1ccccc1)NC(=O)[C@@H](NC(=O)c1n[nH]c3ccccc13)CC(=O)N1CCCC(CCO2)C1` (stereo partly drawn) [Compound 60, N-((9S,12S)-5^4-methyl-8,11,14-trioxo-9-phenethyl-4-oxa-7,10-diaza-1(3,1)-piperidina-5(1,3)-benzenacyclotetradecaphane-12-yl)-1H-indazole-3-carboxamide], the IC50 in the experiment with hPMBC was 100 to 500 nM; in experiment [1], below 100 nM; in experiment [2], below 100 nM.

Regarding `COc1ccc(CC(=O)N[C@H]2CC(=O)N3CCCC(CCOc4ccc(C)c(c4)CNC(=O)[C@H](CCc4ccccc4)NC2=O)C3)cc1OC` (stereo partly drawn) [Compound 63, 2-(3,4-dimethoxyphenyl)-N-((9S,12S)-5^4-methyl-8,11,14-trioxo-9-phenethyl-4-oxa-7,10-diaza-1(3,1)-piperidina-5(1,3)-benzenacyclotetradecaphane-12-yl)acetamide], the IC50 (in the experiment on hPMBC; in experiment [1]; in experiment [2]) was below 100 nM each time.

Consider `Cc1ccc2cc1CNC(=O)[C@H](Cc1c[nH]c3ccccc13)NC(=O)CCC(=O)N1CCCC(CCO2)C1` (stereo partly drawn) [Compound 77, (9S)-9-((1H-indol-3-yl)methyl)-5^4-methyl-4-oxa-7,10-diaza-1(3,1)-piperidina-5(1,3)-benzenacyclotetradecaphane-8,11,14-trione], for which the values for the IC50 (with hPMBC; in experiment [1]; in experiment [2]) were 100 to 500 nM, below 100 nM and below 100 nM, respectively.

In the case of `Cc1ccc2cc1CNC(=O)[C@H](C)NC(=O)CCC(=O)N1CCCC(CCO2)C1` (stereo partly drawn) [Compound 78, (9S)-5^4,9-dimethyl-4-oxa-7,10-diaza-1(3,1)-piperidina-5(1,3)-benzenacyclotetradecaphane-8,11,14-trione], the IC50 is 500 to 1000 nM in the experiment on hPMBC, 1000 to 5000 nM in experiment [1] and 100 to 500 nM in experiment [2].

For `Cc1ccc2cc1CNC(=O)[C@H](Cc1ccccc1)NC(=O)CCC(=O)N1CCCC(CCO2)C1` (stereo partly drawn) [Compound 79, (9S)-9-benzyl-5^4-methyl-4-oxa-7,10-diaza-1(3,1)-piperidina-5(1,3)-benzenacyclotetradecaphane-8,11,14-trione], the IC50 in experiment [1] is 100 to 500 nM; in experiment [2], below 100 nM.

Regarding `Cc1ccc2cc1CNC(=O)[C@H](CCc1ccccc1)NC(=O)[C@@H](NC(=O)[C@H](C)c1ccccc1)CC(=O)N1CCCC(CCO2)C1` (stereo partly drawn) [Compound 80, (2R)-N-((9S,12S)-5^4-methyl-8,11,14-trioxo-9-phenethyl-4-oxa-7,10-diaza-1(3,1)-piperidina-5(1,3)-benzenacyclotetradecaphane-12-yl)-2-phenylpropanamide], the IC50 (with hPMBC; in experiment [1]; in experiment [2]) was below 100 nM in each case.

Turning to `Cc1ccc2cc1CNC(=O)[C@H](CCc1ccccc1)NC(=O)[C@@H](NC(=O)[C@@H](C)c1ccccc1)CC(=O)N1CCCC(CCO2)C1` (stereo partly drawn) [Compound 81, (2S)-N-((9S,12S)-5^4-methyl-8,11,14-trioxo-9-phenethyl-4-oxa-7,10-diaza-1(3,1)-piperidina-5(1,3)-benzenacyclotetradecaphane-12-yl)-2-phenylpropanamide], the IC50 (in the experiment with hPMBC; in experiment [1]; in experiment [2]) was below 100 nM each time.

As for `CC(=O)N[C@H]1CC(=O)N2CCCC(CCOc3ccc(C)c(c3)CNC(=O)C(CCc3cnccn3)NC1=O)C2` (stereo partly drawn) [Compound 564, N-((12S)-5^4-methyl-8,11,14-trioxo-9-(2-(pyrazin-2-yl)ethyl)-4-oxa-7,10-diaza-1(3,1)-piperidina-5(1,3)-benzenacyclotetradecaphane-12-yl)acetamide], the IC50 (in the experiment on hPMBC; in experiment [2]) was below 100 nM each time.
